The record followed here is PubChem BioAssay (NCI).

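Protocol summary: plate cells (96-well), add compound at 5 concentrations, incubate 48 h, interpolate endpoints linearly. TGI: total growth inhibition.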

Some test systems named below: MALME-3M melanoma; SNB-19 CNS; NCI-H522 lung; BT-549 breast; SK-OV-3 ovarian; COLO 205 colon; OVCAR-5 ovarian; MOLT-4 leukemia; NCI-H23 lung; NCI/ADR-RES ovarian; OVCAR-8 ovarian; RPMI-8226 leukemia; SF-295 CNS; 786-0 renal; UACC-257 melanoma; DU-145 prostate; XF 498 CNS; HOP-92 NSCLC; T-47D breast; SW-620 colon.
Test in all cases: NCI-60 cell line screen, 48 h

Regarding `C#CCNC(=O)NC(CCCCNC(=O)OCc1ccccc1)C(=O)OCc1ccccc1` (stereo not given), the TGI is 61 µM in the experiment on MALME-3M melanoma; greater than 100 µM with SNB-19 CNS; 17.1 µM in the experiment on NCI-H522 lung; greater than 100 µM with BT-549 breast; greater than 100 µM in the experiment on SK-OV-3 ovarian; 46.9 µM in the experiment with COLO 205 colon. Moreover, the TGI with OVCAR-5 ovarian is greater than 100 µM; with MOLT-4 leukemia, 85.7 µM; with NCI-H23 lung it was greater than 100 µM; with NCI/ADR-RES ovarian, greater than 100 µM; with OVCAR-8 ovarian, greater than 100 µM; in the experiment on RPMI-8226 leukemia, 70.9 µM. For the same compound, the TGI is greater than 100 µM in the experiment on SF-295 CNS; greater than 100 µM in the experiment on 786-0 renal; 43.9 µM with UACC-257 melanoma; greater than 100 µM in the experiment with DU-145 prostate; 35.7 µM with XF 498 CNS; 54 µM with HOP-92 NSCLC. For the same compound, the TGI in the experiment with T-47D breast is greater than 32.4 µM; in the experiment with SW-620 colon, greater than 100 µM.
